Assay results as given in patent US7442532B2, “Essential fungal CaYLR100w polypeptides, and methods of use” (Bristol-Myers Squibb Company, priority 2003, dated 2008).
≈ marks a conversion by molar mass, not a printed value.

What was measured:
MET3P-ERG1 construct [1] = assay: Sensitivity of the MET3P-ERG1 construct to antifungal drugs (MICs, 96-well format plate); assay type: cell-based, Candida albicans; details: for MIC: Candida albicans, at 20 hrs, MET3P-ERG1 construct; for sensitivity to the drug altered by the presence of methionine: drugs not known to be inhibitors of the CaERG1 product
Experimental: In order to assess whether cells containing the ERG1−MET promoter construct would display hypersensitivity to terbinafine upon the addition of methionine in comparison to cells for which no methionine was added, cells were grown in the 384 well-plate as described above. A final concentration of 0.05 mM methinone was added to wells within one plate of cells and a control plate, in which SD+His broth was added in lieu of methionine was added to a second plate. 8 μl of various concentrations of terbinafine in 10.26% DMSO was added to both the control and test plates. The concentrations of terbinafine added to different wells ranged from 163 μg/ml to 0.02 μg/ml. […] After the addition of this inhibitor, both the control and experimental plates were incubated at 35° C. After 18 hours of incubation, the OD readings were taken of the plates to measure cell growth (595 nm). […] Increased sensitivity of cells containing the ERG1−MET3 was confirmed in a separate experiment using a 96-well format plate.
Furthermore, results of additional experiments conducted with the drugs sordarin and fluconazole which are not known to be inhibitors of the CaERG1 polynucleotide product confirm that sensitivity to these drugs is not altered by the presence of methionine.

[2] = system: MET3 promoter-CaERG1 cells; assay: Drug hypersensitivity whole cell assay, 384-well plate: MET3 promoter-CaERG1 cells with and without methionine; assay type: cell-based, Candida albicans; details: 0.05 mM methionine, 18 hours at 35° C, OD 595 nm, FIG. 10
Experimental: In order to determine if essential polynucleotide products could be reduced in fungal cells resulting in drug hypersensitivity, a high throughput whole cell assay was designed. The known C. albicans essential polynucleotide corresponding ERG1 polynucleotide in S. cervisiae was tested. CaERG 1 codes for squaline epoxidase and is known to be inhibited by terbinafine. The first polynucleotide copy was disrupted as described above and the second polynucleotide copy was modified by promoter swapping with MET3 promoter, also as described above.
The optimal cell density needed to control cell growth in a 384-well plate within the log phase after 18 hours incubation at 35° C. was first determined. […] At different time intervals, the plate was withdrawn from the incubator and the cell growth was determined by reading absorbance at 590 nm on a Perkin Elmer 7000 machine.
In order to assess whether cells containing the ERG1−MET promoter construct would display hypersensitivity to terbinafine upon the addition of methionine in comparison to cells for which no methionine was added, cells were grown in the 384 well-plate as described above. […] After 18 hours of incubation, the OD readings were taken of the plates to measure cell growth (595 nm). […]

[3] = system: ergosterol biosynthetic pathway in strain caerg1Δ/PMET3-CaERG1; assay: Incorporation of labeled acetate into sterols (TLC, scintillation counting), control strain; assay type: cell-based, Candida albicans; details: FIG. 22A, lanes 1 and 2; 90 minute induction period
Experimental: (§1) Overnight cultures were diluted into fresh SD+histidine (His) broth and grown at 30° C. until logarithmic growth was established. Cultures were harvested by centrifugation. Cells were then separated into tubes at a final density of 0.25 OD600 containing either fresh SD+His broth or SD+His broth containing 5 mM methionine (Met) and 2.5 mM cysteine (Cys). At the end of either a 0.75, 1.5, 3 or 4.5 hour incubation period, the OD600 values of each tube were measured and cultures were adjusted to a density of 0.25 OD600 units per ml (2 mls per tube). Cultures were then pulsed with 2 μCi/tube of [^3H]-acetic acid for 60 minutes.
(§2) At the end of the labeling period, cells were pelleted and rinsed 1× with medium. The washed pellet was resuspended with 1 ml of 0.1 N HCl, transferred to glass screw-capped tubes, and incubated for 5 minutes at 85° C. […]
(§3) Dried samples were disolved in petroleum ether and spotted onto a 20 cm×20 cm silica gel 60 TLC plate. […] The location of radiolabeled spots on the TLC plate was determined by matching the exposed spots on the autoradiogram.
(§4) In order to quantitate the radioactivity associated with the ergosterol pathway products, the silica gel corresponding to the exposed spots was excised from the plate and mixed with 0.5 ml of water, then mixed with 5 mls of scintillation cocktail prior to scintillation counting. […]

[4] = system: ergosterol biosynthetic pathway in strain fcg5Δ/PMET3-FCG5; assay: Incorporation of labeled acetate into sterols (TLC, scintillation counting), test strain; assay type: cell-based, Candida albicans; details: FIG. 22B; majority of the counts trapped in squalene
Experimental: as §1, §2, §3, §4

MET3P-ERG1 construct [5] = details: 0.5 mM methionine; growth monitored between 16 and 24 hours, OD 595 nm; FIG. 9
Experimental: Cells were diluted from these cultures to 757,002 cfu/ml in SD+His medium. 35 μl of the diluted cells were dispensed into wells of a 384-well plate containing 8 μl of 10.26% DMSO. […] Cell growth was monitored between 16 and 24 hours by reading the optical density at 595 nm.

Structure (SMILES): OC(Cn1cncn1)(Cn1cncn1)c1ccc(F)cc1F [Fluconazole]
- MIC (MET3P-ERG1 construct [1]; absence of methionine): 1 µg/mL (≈ 3.27 µM)
- MIC (MET3P-ERG1 construct [1]; presence of methionine): 1 µg/mL
- sensitivity to the drug altered by the presence of methionine (MET3P-ERG1 construct [1]): not altered

Structure (SMILES): CO[C@H]1[C@@H](O)[C@H](O)[C@H](OC[C@@]23C[C@@H]4[C@H](C)CC[C@H]4[C@@]4(C=O)CC2C=C(C(C)C)[C@@]34C(=O)O)O[C@@H]1C [Sordarin]
- MIC (MET3P-ERG1 construct [1]; absence of methionine): 0.5 µg/mL (≈ 1.02 µM)
- MIC (MET3P-ERG1 construct [1]; presence of methionine): 0.5 µg/mL
- sensitivity to the drug altered by the presence of methionine (MET3P-ERG1 construct [1]): not altered

Structure (SMILES): CN(C/C=C/C#CC(C)(C)C)Cc1cccc2ccccc12 [Terbinafine]
- increase in sensitivity in the presence of methionine comparing to the no methionine control [2]: 4-8 fold
- increase in sensitivity when promoter activity was down regulated by the presence of methionine (MET3P-ERG1 construct [1]; 96-well format plate, Table 7): 16-32 fold
- MIC (MET3P-ERG1 construct [1]; presence of methionine): 0.5 µg/mL
- effect on ergosterol biosynthesis (TLC autoradiogram) [3]: a block in ergosterol biosynthesis at squalene
- effect on incorporation of radiolabelled acetate into ergosterol (TLC autoradiogram) [4]: blocked the incorporation of radiolabelled acetate into ergosterol

Structure (SMILES): CSCC[C@H](N)C(=O)O [methionine]
- reduction of cell growth (MET3P-ERG1 construct [5]): approximately 50%
